From patent US8163793B2, “Proline derivatives” (Hoffman-La Roche Inc., priority 2009, dated 2012)
Structures can show the parent of a compound that is named as a salt.

Experiments:
Cat L = Cat L (UniProt P07711); assay: Cathepsin enzyme inhibition assay (fluorogenic peptide substrate Z-Val-Val-Arg-AMC), Cathepsin L; assay type: biochemical, human and mouse; details: for IC50: enzyme 1 nM, substrate 20 μM, pH 6.5, read-out: CatL IC50
How it was run: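 Cathepsin L at 1 nM was mixed with compound, then started with 20 μM Z-Val-Val-Arg-AMC in pH 6.5 potassium phosphate with EDTA, Triton X-100 and 5 mM DTT. AMC fluorescence (ex 360/em 465 nm) was followed over 20 min. IC50 is given in μM.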

Cathepsin S = Cathepsin S (UniProt P25774); assay: Cathepsin enzyme inhibition assay (fluorogenic peptide substrate Z-Val-Val-Arg-AMC), Cathepsin S; assay type: biochemical, human and mouse; details: enzyme 1 nM, substrate 20 μM, pH 6.5; read-out: CatS IC50
How it was run: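 Human or mouse cathepsin S (1 nM) was run in 100 mM potassium phosphate pH 6.5 with 5 mM EDTA, 0.001% Triton X-100 and 5 mM DTT. The rise in AMC fluorescence from cleavage was measured, and IC50 values were calculated by standard methods and expressed in μM.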

| SMILES | IC50 (Cat L) | IC50 (Cathepsin S) | CatL, % @25 uM (Cat L; @25 uM compound) |
| --- | --- | --- | --- |
| Cc1ccc(S(=O)(=O)[C@H]2CN[C@H](C(=O)NC3(C#N)CC3)C2)c(C)c1 [Example 49, (2S,4R)-4-(2,4-Dimethyl-benzenesulfonyl)-pyrrolidine-2-carboxylic acid (1-cyano-cyclopropyl)-amide Hydrochloride] | 6920 nM | 1.8 nM | – |
| N#CC1(NC(=O)[C@@H]2C[C@@H](S(=O)(=O)c3ccc(F)cc3F)CN2)CC1 [Example 17, (2S,4R)-4-(2,4-Difluoro-benzenesulfonyl)-pyrrolidine-2-carboxylic acid (1-cyano-cyclopropyl)-amide Hydrochloride] | ≥ 25000 nM | 32 nM | – |
| N#CC1(NC(=O)[C@@H]2C[C@@H](S(=O)(=O)c3ccc(N4CCC(F)(F)CC4)cc3Cl)CN2C(=O)C2(C(F)(F)F)CC2)CC1 [Example 157, (2S,4R)-4-[2-Chloro-4-(4,4-difluoro-piperidin-1-yl)-benzenesulfonyl]-1-(1-trifluoromethyl-cyclopropanecarbonyl)-pyrrolidine-2-carboxylic acid (1-cyano-cyclopropyl)-amide] | 4410 nM | 0.4 nM | – |
| Cc1cc(N2C[C@H](S(=O)(=O)CC3CC3)C[C@H]2C(=O)NC2(C#N)CC2)n(CC(F)(F)F)n1 [Example 467, (2S,4R)-4-Cyclopropylmethanesulfonyl-1-[5-methyl-2-(2,2,2-trifluoro-ethyl)-2H-pyrazol-3-yl]-pyrrolidine-2-carboxylic acid (1-cyano-cyclopropyl)-amide] | – | 2080 nM | 95% @25 uM |
| Cc1cc(Cl)ccc1S(=O)(=O)[C@@H]1C[C@@H](C(=O)NC2(C#N)CC2)N(C(=O)OC(C)(C)C)C1 [Example 40, (2S,4R)-4-(4-Chloro-2-methyl-benzenesulfonyl)-2-(1-cyano-cyclopropylcarbamoyl)-pyrrolidine-1-carboxylic acid tert-butyl ester] | 41400 nM | 5.2 nM | – |
| CS(=O)(=O)[C@@H]1C[C@@H](C(=O)NC2(C#N)CC2)N(C(=O)C2(c3ccc(Cl)cc3)CC2)C1 [Example 409, (2S,4R)-1-[1-(4-Chloro-phenyl)-cyclopropanecarbonyl]-4-methanesulfonyl-pyrrolidine-2-carboxylic acid (1-cyano-cyclopropyl)-amide] | ≥ 25000 nM | 2530 nM | – |
| N#CC1(NC(=O)[C@@H]2C[C@@H](S(=O)(=O)c3cccc(Cl)c3Cl)CN2)CC1 [Example 51, (2S,4R)-4-(2,3-Dichloro-benzenesulfonyl)-pyrrolidine-2-carboxylic acid (1-cyano-cyclopropyl)-amide Hydrochloride] | ≥ 25000 nM | 26 nM | – |
| N#CC1(NC(=O)[C@@H]2C[C@@H](S(=O)(=O)c3ccc(N4CCC(F)(F)CC4)cc3Cl)CN2)CC1 [Example 155, (2S,4R)-4-[2-Chloro-4-(4,4-difluoro-piperidin-1-yl)-benzenesulfonyl]-pyrrolidine-2-carboxylic Acid (1-cyano-cyclopropyl)-amide] | 8320 nM | 2.5 nM | – |
| COc1ccc(S(=O)(=O)[C@@H]2C[C@@H](C(=O)NC3(C#N)CC3)N(c3cc(C)nn3C3CCC3)C2)c(Cl)c1 [Example 375, (2S,4R)-4-(2-Chloro-4-methoxy-benzenesulfonyl)-1-(2-cyclobutyl-5-methyl-2H-pyrazol-3-yl)-pyrrolidine-2-carboxylic acid (1-cyano-cyclopropyl)-amide] | 5370 nM | 0.29 nM | – |
| COc1ccc(S(=O)(=O)[C@@H]2C[C@@H](C(=O)NC3(C#N)CC3)N(C(=O)OC(C)(C)C)C2)c(Cl)c1 [Example 387, (2S,4R)-4-(2-Chloro-4-methoxy-benzenesulfonyl)-2-(1-cyano-cyclopropylcarbamoyl)-pyrrolidine-1-carboxylic acid tert-butyl ester] | 52500 nM | 6.7 nM | – |
| N#CC1(NC(=O)[C@@H]2C[C@@H](S(=O)(=O)c3ccc(N4CCC(F)(F)C4)cc3C(F)(F)F)CN2)CC1 [Example 28, (2S,4R)-4-[4-(3,3-Difluoro-pyrrolidin-1-yl)-2-trifluoromethyl-benzenesulfonyl]-pyrrolidine-2-carboxylic acid (1-cyano-cyclopropyl)-amide hydrochloride] | ≥ 25000 nM | 1.5 nM | – |

The remaining lines, values ahead:

| IC50 (Cat L) | IC50 (Cathepsin S) | CatL, % @25 uM (Cat L; @25 uM compound) | SMILES |
| --- | --- | --- | --- |
| ≥ 25000 nM | 205 nM | – | C[C@H](Oc1ccc(S(=O)(=O)[C@@H]2C[C@H](C(=O)NC3(C#N)CC3)N(C(=O)C(C)(C)C)C2)c(Cl)c1)C(F)(F)F [Example 204, (2R,4R)-4-[2-Chloro-4-((S)-2,2,2-trifluoro-1-methyl-ethoxy)-benzenesulfonyl]-1-(2,2-dimethyl-propionyl)-pyrrolidine-2-carboxylic acid (1-cyano-cyclopropyl)-amide] |
| ≥ 25000 nM | 155 nM | – | N#CC1(NC(=O)[C@H]2C[C@H](S(=O)(=O)c3ccccc3C(F)(F)F)CN2c2ccc(F)c(Cl)c2)CC1 [Example 395, (2R,4S)-1-(3-Chloro-4-fluoro-phenyl)-4-(2-trifluoromethyl-benzenesulfonyl)-pyrrolidine-2-carboxylic acid (1-cyano-cyclopropyl)-amide] |
| ≥ 25000 nM | 12.7 nM | – | N#CC1(NC(=O)[C@@H]2C[C@@H](S(=O)(=O)c3ccccc3)CN2C(=O)c2ccccc2)CC1 [Example 73, (2S,4R)-4-Benzenesulfonyl-1-benzoyl-pyrrolidine-2-carboxylic acid (1-cyano-cyclopropyl)-amide] |
| 21400 nM | 0.338 nM | – | Cc1cc(N2C[C@H](S(=O)(=O)c3ccc(-n4cccn4)cc3C(F)(F)F)C[C@H]2C(=O)NC2(C#N)CC2)n(C2CCC2)n1 [Example 416, (2S,4R)-1-(2-Cyclobutyl-5-methyl-2H-pyrazol-3-yl)-4-(4-pyrazol-1-yl-2-trifluoromethyl-benzenesulfonyl)-pyrrolidine-2-carboxylic acid (1-cyano-cyclopropyl)-amide] |
| 95 nM | 0.51 nM | – | N#CC1(NC(=O)[C@@H]2C[C@@H](S(=O)(=O)c3ccccc3Cl)CN2C(=O)C2(c3ccc(C(F)(F)F)cc3)CC2)CC1 [Example 427, (2S,4R)-4-(2-chlorophenylsulfonyl)-N-(1-cyanocyclopropyl)-1-(1-(4-(trifluoromethyl)phenyl)cyclopropanecarbonyl)pyrrolidine-2-carboxamide] |
| 13500 nM | 0.6 nM | – | CC(C)C(=O)N1C[C@H](S(=O)(=O)c2ccc(Cl)cc2Cl)C[C@H]1C(=O)NC1(C#N)CC1 [Example 226, (2S,4R)-4-(2,4-Dichloro-benzenesulfonyl)-1-isobutyryl-pyrrolidine-2-carboxylic acid (1-cyano-cyclopropyl)-amide] |
| ≥ 25000 nM | 0.3 nM | – | N#CC1(NC(=O)[C@@H]2C[C@@H](S(=O)(=O)c3ccccc3C(F)(F)F)CN2C(=O)C2CCC(C(F)(F)F)CC2)CC1 (stereo partly drawn) [Example 105, (2S,4R)-4-(2-Trifluoromethyl-benzenesulfonyl)-1-(4-trifluoromethyl-cyclohexanecarbonyl)-pyrrolidine-2-carboxylic acid (1-cyano-cyclopropyl)-amide] |
| 550 nM | 0.95 nM | – | N#CC1(NC(=O)[C@@H]2C[C@@H](S(=O)(=O)c3ccc(F)cc3F)CN2C(=O)C2(c3ccc(Cl)cc3)CC2)CC1 [Example 235, (2S,4R)-1-[1-(4-Chloro-phenyl)-cyclopropanecarbonyl]-4-(2,4-difluoro-benzenesulfonyl)-pyrrolidine-2-carboxylic acid (1-cyano-cyclopropyl)-amide] |
| ≥ 25000 nM | 295 nM | – | CC(C)(C)OC(=O)N1CCC(N2CC(S(=O)(=O)c3ccccc3C(F)(F)F)CC2C(=O)NC2(C#N)CC2)CC1 (stereo not drawn) [Example 364, 4-[2-(1-Cyano-cyclopropylcarbamoyl)-4-(2-trifluoromethyl-benzenesulfonyl)-pyrrolidin-1-yl]-piperidine-1-carboxylic acid tert-butyl ester] |
| 606 nM | 0.1 nM | – | N#CC1(NC(=O)[C@@H]2C[C@@H](S(=O)(=O)c3ccccc3C(F)(F)F)CN2C(=O)C2(c3ccc(Cl)cc3)CC2)CC1 [Example 202, (2S,4R)-1-[1-(4-Chloro-phenyl)-cyclopropanecarbonyl]-4-(2-trifluoromethyl-benzenesulfonyl)-pyrrolidine-2-carboxylic acid (1-cyano-cyclopropyl)-amide] |
| ≥ 25000 nM | 110 nM | – | N#CC1(NC(=O)[C@H]2C[C@@H](S(=O)(=O)c3ccc(-n4cccn4)cc3Cl)CN2C(=O)C2(C(F)(F)F)CC2)CC1 [Example 165, (2R,4R)-4-(2-Chloro-4-pyrazol-1-yl-benzenesulfonyl)-1-(1-trifluoromethyl-cyclopropanecarbonyl)-pyrrolidine-2-carboxylic acid (1-cyano-cyclopropyl)-amide] |
| ≥ 25000 nM | 46.7 nM | – | C[C@H](Oc1ccc(S(=O)(=O)[C@@H]2C[C@H](C(=O)NC3(C#N)CC3)N(C(=O)C3(C)CC3)C2)c(Cl)c1)C(F)(F)F [Example 200, (2R,4R)-4-[2-Chloro-4-((S)-2,2,2-trifluoro-1-methyl-ethoxy)-benzenesulfonyl]-1-(1-methyl-cyclopropanecarbonyl)-pyrrolidine-2-carboxylic acid (1-cyano-cyclopropyl)-amide] |
| 1550 nM | 3.31 nM | – | Cc1cc(N2C[C@H](S(=O)(=O)c3ccc(OCC(F)(F)F)cc3Cl)C[C@H]2C(=O)NC2(C#N)CC2)n(CCc2ccccc2)n1 [Example 484, (2S,4R)-4-[2-Chloro-4-(2,2,2-trifluoro-ethoxy)-benzenesulfonyl]-1-(5-methyl-2-phenethyl-2H-pyrazol-3-yl)-pyrrolidine-2-carboxylic acid (1-cyano-cyclopropyl)-amide] |
